Source: US20180325914A1, “INCREASING STORAGE OF VITAMIN A, VITAMIN D AND/OR LIPIDS” (Salk Institute for Biological Studies, priority 2014, published 2018)

Test system: primary HSCs

Structure (SMILES): Cc1sc2c(c1C)C(c1ccc(Cl)cc1)=N[C@@H](CC(=O)OC(C)(C)C)c1nnc(C)n1-2 [JQ1, (S)-tert-butyl 2-(4-(4-chlorophenyl)-2,3,9-trimethyl-6H-thieno[3,2-f][1,2,4]triazolo[4,3-a][1,4]diazepin-6-yl)acetate]
- Stk39 value_2 (Day_6_JQ1): 17.0092
- Sulf1 value_2 (Day_6_JQ1): 53.8118
- Tbxa2r value_2 (Day_6_JQ1): 1.603
- Tcea3 value_2 (Day_6_JQ1): 1.947
- Tead3 value_2 (Day_6_JQ1): 19.5802
- Thbs3 value_2 (Day_6_JQ1): 1.4249
- Timp1 value_2 (Day_6_JQ1): 296.521
- Tlcd2 value_2 (Day_6_JQ1): 7.717
- Tm7sf3 value_2 (Day_6_JQ1): 17.8846
- Tmem14a value_2 (Day_6_JQ1): 2.145
- Tmem38a value_2 (Day_6_JQ1): 9.934
- Tmem45a value_2 (Day_6_JQ1): 21.4757
- Tmem119 value_2 (Day_6_JQ1): 38.7358
- Tpm1 value_2 (Day_6_JQ1): 1441.58
- Trf value_2 (Day_6_JQ1): 73.4499
- Trim46 value_2 (Day_6_JQ1): 1.758
- Trnp1 value_2 (Day_6_JQ1): 13.5695
- Tsku value_2 (Day_6_JQ1): 19.2147
- Tspan2 value_2 (Day_6_JQ1): 2.762
- Tspan6 value_2 (Day_6_JQ1): 21.2613
- Ttc13 value_2 (Day_6_JQ1): 20.1057
- Tubb2b value_2 (Day_6_JQ1): 18.8633
- Tubb4 value_2 (Day_6_JQ1): 12.0841
- Txndc5 value_2 (Day_6_JQ1): 194.663
- Ube2c value_2 (Day_6_JQ1): 30.6226
- Unc119 value_2 (Day_6_JQ1): 15.3231
- Vash2 value_2 (Day_6_JQ1): 1.343
- Vegfa value_2 (Day_6_JQ1): 27.576
- Wee1 value_2 (Day_6_JQ1): 8.031
- Wfs1 value_2 (Day_6_JQ1): 22.9762
- Whrn value_2 (Day_6_JQ1): 4.993
- Wnt4 value_2 (Day_6_JQ1): 18.5297
- Wnt5a value_2 (Day_6_JQ1): 7.524
- Wnt9a value_2 (Day_6_JQ1): 7.671
- Ydjc value_2 (Day_6_JQ1): 1.905
- Zbtb8b value_2 (Day_6_JQ1): 2.023
- Zyx value_2 (Day_6_JQ1): 185.005
- 1190002N15Rik value_2 (gene 1190002N15Rik, mRNA-Seq, sample Day_6_JQ1): 132.567
- Aard value_2 (gene Aard, mRNA-Seq, sample Day_6_JQ1): 83.973
- Abat value_2 (gene Abat, mRNA-Seq, sample Day_6_JQ1): 35.0761
- Adamts5 value_2 (gene Adamts5, mRNA-Seq, sample Day_6_JQ1): 91.9646
- Aldh1a1 value_2 (gene Aldh1a1, mRNA-Seq, sample Day_6_JQ1): 311.654
- Arxes2 value_2 (gene Arxes2, mRNA-Seq, sample Day_6_JQ1): 27.1896
- Asf1b value_2 (gene Asf1b, mRNA-Seq, sample Day_6_JQ1): 22.9334
- Atoh8 value_2 (gene Atoh8, mRNA-Seq, sample Day_6_JQ1): 73.1716
- Barx1 value_2 (gene Barx1, mRNA-Seq, sample Day_6_JQ1): 11.4288
- Bcmo1 value_2 (gene Bcmo1, mRNA-Seq, sample Day_6_JQ1): 159.902
- Birc5 value_2 (gene Birc5, mRNA-Seq, sample Day_6_JQ1): 50.4974
- Bub1 value_2 (gene Bub1, mRNA-Seq, sample Day_6_JQ1): 8.993
- Casc4 value_2 (gene Casc4, mRNA-Seq, sample Day_6_JQ1): 36.8307
- Cd248 value_2 (gene Cd248, mRNA-Seq, sample Day_6_JQ1): 118.878
- Cdca5 value_2 (gene Cdca5, mRNA-Seq, sample Day_6_JQ1): 10.0872
- Cdon value_2 (gene Cdon, mRNA-Seq, sample Day_6_JQ1): 16.8708
- Cep55 value_2 (gene Cep55, mRNA-Seq, sample Day_6_JQ1): 13.1668
- Ckap2 value_2 (gene Ckap2, mRNA-Seq, sample Day_6_JQ1): 33.1117
- Clca1 value_2 (gene Clca1, mRNA-Seq, sample Day_6_JQ1): 52.2679
- Col14a1 value_2 (gene Col14a1, mRNA-Seq, sample Day_6_JQ1): 181.433
- Ddr1 value_2 (gene Ddr1, mRNA-Seq, sample Day_6_JQ1): 106.289
- Dzip1 value_2 (gene Dzip1, mRNA-Seq, sample Day_6_JQ1): 31.5814
- Efemp1 value_2 (gene Efemp1, mRNA-Seq, sample Day_6_JQ1): 205.387
- Egr1 value_2 (gene Egr1, mRNA-Seq, sample Day_6_JQ1): 141.166
- Emilin2 value_2 (gene Emilin2, mRNA-Seq, sample Day_6_JQ1): 88.1199
- Epha7 value_2 (gene Epha7, mRNA-Seq, sample Day_6_JQ1): 11.3808
- Fam117a value_2 (gene Fam117a, mRNA-Seq, sample Day_6_JQ1): 15.5563
- Fam123b value_2 (gene Fam123b, mRNA-Seq, sample Day_6_JQ1): 9.43
- Fam83d value_2 (gene Fam83d, mRNA-Seq, sample Day_6_JQ1): 24.1741
- Fbln1 value_2 (gene Fbln1, mRNA-Seq, sample Day_6_JQ1): 13.4635
- Fbln5 value_2 (gene Fbln5, mRNA-Seq, sample Day_6_JQ1): 79.5082
- Fgfr2 value_2 (gene Fgfr2, mRNA-Seq, sample Day_6_JQ1): 86.0077
- Fhl1 value_2 (gene Fhl1, mRNA-Seq, sample Day_6_JQ1): 503.063
- Figf value_2 (gene Figf, mRNA-Seq, sample Day_6_JQ1): 27.0541
- Gamt value_2 (gene Gamt, mRNA-Seq, sample Day_6_JQ1): 12.8445
- Gdf11 value_2 (gene Gdf11, mRNA-Seq, sample Day_6_JQ1): 22.9531
- Ghr value_2 (gene Ghr, mRNA-Seq, sample Day_6_JQ1): 60.5749
- H1fx value_2 (gene H1fx, mRNA-Seq, sample Day_6_JQ1): 50.515
- H2afx value_2 (gene H2afx, mRNA-Seq, sample Day_6_JQ1): 155.278
- H19 value_2 (gene H19, mRNA-Seq, sample Day_6_JQ1): 82.2113
- Hist1h1c value_2 (gene Hist1h1c, mRNA-Seq, sample Day_6_JQ1): 246.293
- Hmcn1 value_2 (gene Hmcn1, mRNA-Seq, sample Day_6_JQ1): 13.3966
- Hmgn3 value_2 (gene Hmgn3, mRNA-Seq, sample Day_6_JQ1): 59.5606
- Hspa2 value_2 (gene Hspa2, mRNA-Seq, sample Day_6_JQ1): 19.5751
- Igf2r value_2 (gene Igf2r, mRNA-Seq, sample Day_6_JQ1): 67.7147
- Igfbp6 value_2 (gene Igfbp6, mRNA-Seq, sample Day_6_JQ1): 52.4488
- Isyna1 value_2 (gene Isyna1, mRNA-Seq, sample Day_6_JQ1): 113.425
- Itga1 value_2 (gene Itga1, mRNA-Seq, sample Day_6_JQ1): 101.182
- Itm2a value_2 (gene Itm2a, mRNA-Seq, sample Day_6_JQ1): 59.8717
- Kif23 value_2 (gene Kif23, mRNA-Seq, sample Day_6_JQ1): 11.9374
- Kifc1 value_2 (gene Kifc1, mRNA-Seq, sample Day_6_JQ1): 15.9311
- Klhl13 value_2 (gene Klhl13, mRNA-Seq, sample Day_6_JQ1): 100
- Lama1 value_2 (gene Lama1, mRNA-Seq, sample Day_6_JQ1): 16.8277
- Lum value_2 (gene Lum, mRNA-Seq, sample Day_6_JQ1): 485.984
- Mad2l1 value_2 (gene Mad2l1, mRNA-Seq, sample Day_6_JQ1): 31.9743
- Mapk8ip1 value_2 (gene Mapk8ip1, mRNA-Seq, sample Day_6_JQ1): 16.3375
- Meis1 value_2 (gene Meis1, mRNA-Seq, sample Day_6_JQ1): 24.7836
- Mmp17 value_2 (gene Mmp17, mRNA-Seq, sample Day_6_JQ1): 25.3895
- Mxd4 value_2 (gene Mxd4, mRNA-Seq, sample Day_6_JQ1): 76.146
- Ncapd2 value_2 (gene Ncapd2, mRNA-Seq, sample Day_6_JQ1): 18.5667
- Ncapg2 value_2 (gene Ncapg2, mRNA-Seq, sample Day_6_JQ1): 11.6063
- Ncaph value_2 (gene Ncaph, mRNA-Seq, sample Day_6_JQ1): 16.1078
- Nek2 value_2 (gene Nek2, mRNA-Seq, sample Day_6_JQ1): 11.522
- Nusap1 value_2 (gene Nusap1, mRNA-Seq, sample Day_6_JQ1): 10.0613
- Pcsk6 value_2 (gene Pcsk6, mRNA-Seq, sample Day_6_JQ1): 16.0741
- Pcyox1 value_2 (gene Pcyox1, mRNA-Seq, sample Day_6_JQ1): 135.704
- Peg3 value_2 (gene Peg3, mRNA-Seq, sample Day_6_JQ1): 37.0421
- Peg10 value_2 (gene Peg10, mRNA-Seq, sample Day_6_JQ1): 121.813
- Pkia value_2 (gene Pkia, mRNA-Seq, sample Day_6_JQ1): 28.0014
